Measurements: patent publication US9783545B2, “Pyrazolopyridazines and methods for treating retinal-degenerative diseases and hearing loss associated with usher syndrome” (Usher III Initiative, Inc., priority 2012, dated 2017)

What was measured:
[1] = target: T1, N48K Clarin-1 (Homo sapiens, UniProt P58418, N48K); test: Restoration of expression of N48K Clarin-1, 2 hour incubation then 22 hr fresh medium (high content imaging of HA-tagged N48K Clarin-1); type: cell-based; conditions: HEK293-Clarin-1 N48K-HA D9 cell line, 2 hr incubation with compound, then 22 hr in fresh medium
T1 construct: expressed in transfected cells
T1 sequence (P58418 1-232 N48K): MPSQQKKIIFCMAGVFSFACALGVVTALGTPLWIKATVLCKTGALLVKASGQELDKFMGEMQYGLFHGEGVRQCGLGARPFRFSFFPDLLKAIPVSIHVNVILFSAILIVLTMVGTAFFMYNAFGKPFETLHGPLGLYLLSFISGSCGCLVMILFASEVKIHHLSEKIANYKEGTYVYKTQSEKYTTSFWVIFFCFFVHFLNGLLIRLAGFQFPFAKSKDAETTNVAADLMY
Protocol: An Assay Method Showing Activity of Compounds of the Invention that Restore Expression of N48K Clarin-1(2 hour incubation)
(§1) Clarin-1 is the protein encoded by the gene mutated in Usher III Syndrome (Adato et al., 2002). The most prevalent mutation in Clarin-1 in North America is N48K, which is reported to cause loss of glycosylation and a trafficking defect (Tian et al., 2009). […] Thus it is believed that restoring the trafficking of N48K Clarin-1 to the cell surface provides an avenue of intervention for Usher III Sydrome.
(§2) In a typical experiment, these cells were seeded on collagen-coated 96-well plates at a cell density of 20,000 cells per well in Dulbecco's Modified Eagle Medium (DMEM) contain 10% fetal bovine serum in a humidified incubator at 37° C., 5% CO2. After an overnight incubation, compounds were added for a 2 hr incubation in DMEM medium contain 10% fetal bovine serum in a humidified incubator at 37° C., 5% CO2. As a negative control, DMSO was used at 0.25% final concentrations. Compounds were typically tested in triplicate fashion. After the 2 hr incubation with compounds, the cells were incubated in fresh medium for 22 hr. The cells were then fixed by the addition of 10% buffered formalin to the wells to achieve a final concentration of 4% formalin. After a 20 min fixation at room temperature, wells were washed three times with phosphate-buffered saline (PBS) containing Triton X-100 (0.02 phosphate, 150 mM NaCl, 0.1% Triton X-100).
(§3) The HA-tagged N48K Clarin-1 was detected with an antibody against the HA tag (HA.11 Clone 16B12 Monoclonal antibody, Covance #MMS-101P) at a dilution of 1:1000 in PBS containing Triton X-100. After a 90 min incubation, wells were washed three times with PBS containing Triton X-100, and a secondary antibody (Goat anti-mouse IgG-Cy3 (1.5 mg/ml), Jackson IR Europe #115165003) was added to the wells at a dilution of 1:250 in PBS containing Triton X-100 for 45 min. Wells were subsequently washed three times with PBS containing Triton X-100, and a final staining for nuclei was performed by the addition of DAPI (4′,6-diamidino-2-phenylindole) at a dilution of 1:10,000. The imaging of the stained cells was performed on an InCell 1000 High Content Imager (GE Healthcare), reading out the Cy3 channel for N48K Clarin-1 and the DAPI channel for nuclei. The images are analyzed and quantitated using a specific algorithm. This algorithm measured the HA-Clarin-1 staining for each cell based on the additional nuclear segmentation of the DAPI signal (FIG. 1). This algorithm measured the intensity per cell, and thus it is less sensitive for variation in cell number. Per well, approximately 2,000 cells were measured to achieve an average density per cell measurement.

[2] = target: T1, N48K Clarin-1; test: Restoration of expression of N48K Clarin-1, 24 hour incubation (high content imaging of HA-tagged N48K Clarin-1); type: cell-based; conditions: HEK293-Clarin-1 N48K-HA D9 cell line, 24 hr incubation with compound; read-out: IC50 (the source's name)
Protocol: Assay Method Showing Activity of Compounds of the Invention that Restore Expression of N48K Clarin-1 (24 hour incubation)
as §1
as §2, with “for a 24 hr incubation” for “for a 2 hr incubation”, “After the 24 hr incubation” for “After the 2 hr incubation”, “cells were fixed by” for “cells were incubated in fresh medium for 22 hr. The cells were then fixed by”
as §3, with “images were” for “images are”, “measurement. FIG. 1 illustrates high content analysis. DAPI-stained nuclei are used to perform segmentation of the image into individual cells. The density observed in the N48K Clarin-1 channel (Cy3) is then calculated per cell averaged over a field.” for “measurement.”

Row | SMILES | IC50 [1] | EC50 [2]
1 | COC/C=C/c1nn(CCN2CCN(C)CC2)c2nnc(-c3ccccc3)c(Cl)c12 [Ii, (E)-4-chloro-3-(3-methoxyprop-1-en-1-yl)-1-(2-(4-methylpiperazin-1-yl)ethyl)-5-phenyl-1H-pyrazolo[3,4-c]pyridazine] | ≤ 4 µM | ≤ 2 µM
2 | Clc1c(-c2ccccc2)nnc2c1c(-c1ccccc1)nn2Cc1cccnc1 [IIn, 4-chloro-3,5-diphenyl-1-(3-pyridylmethyl)pyrazolo[3,4-c]pyridazine] | ≤ 4 µM | ≤ 2 µM
3 | Clc1c(-c2ccccc2)nnc2c1c(-c1ccccc1)nn2Cc1cocn1 [IIh, 4-[(4-chloro-3,5-diphenyl-pyrazolo[3,4-c]pyridazin-1-yl)methyl]oxazole] | ≤ 4 µM | ≤ 2 µM
4 | CN1CCN(CCn2nc(-c3cnn(C)c3)c3c(Cl)c(-c4ccccc4)nnc32)CC1 [Ic, 4-chloro-3-(1-methyl-1H-pyrazol-4-yl)-1-(2-(4-methylpiperazin-1-yl)ethyl)-5-phenyl-1H-pyrazolo[3,4-c]pyridazine] | 4 to 8 µM | ≤ 2 µM
5 | Fc1cccc(-c2nn(CCn3ccnc3)c3nnc(-c4ccccc4)c(Cl)c23)c1 [IIs, 4-chloro-3-(3-fluorophenyl)-1-(2-imidazol-1-ylethyl)-5-phenyl-pyrazolo[3,4-c]pyridazine] | ≤ 4 µM | ≤ 2 µM
6 | FCCn1nc(-c2ccccc2)c2c(Cl)c(-c3ccccc3)nnc21 [IIl, 4-chloro-1-(2-fluoroethyl)-3,5-diphenyl-pyrazolo[3,4-c]pyridazine] | ≤ 4 µM | ≤ 2 µM
7 | O=C1CCCN1CCn1nc(-c2ccccc2)c2c(Cl)c(-c3ccccc3)nnc21 [IIb, 1-[2-(4-chloro-3,5-diphenyl-pyrazolo[3,4-c]pyridazin-1-yl)ethyl]pyrrolidin-2-one] | ≤ 4 µM | ≤ 2 µM
8 | Clc1c(-c2ccccc2)nnc2c1c(-c1ccccc1)nn2CCn1ccnc1 [IIc, 4-chloro-1-(2-imidazol-1-ylethyl)-3,5-diphenyl-pyrazolo[3,4-c]pyridazine] | ≤ 4 µM | ≤ 2 µM
9 | F[C@@H]1CCN(CCn2nc(I)c3c(Cl)c(-c4ccccc4)nnc32)C1 [Ip, 4-chloro-1-[2-[(3R)-3-fluoropyrrolidin-1-yl]ethyl]-3-iodo-5-phenyl-pyrazolo[3,4-c]pyridazine] | 4 to 8 µM | –
10 | Clc1c(-c2ccccc2)nnc2c1c(-c1ccccc1)nn2CCn1cccn1 [XIVa, 4-chloro-3,5-diphenyl-1-(2-pyrazol-1-ylethyl)pyrazolo[3,4-c]pyridazine] | ≤ 4 µM | –
11 | Clc1c(-c2ccccc2)nnc2c1c(I)nn2CCN1CCCC1 [Ir, 4-chloro-3-iodo-5-phenyl-1-(2-pyrrolidin-1-ylethyl)pyrazolo[3,4-c]pyridazine] | ≤ 4 µM | –
12 | Fc1ccc(-c2nn(CCN3CC[C@@H](F)C3)c3nnc(-c4ccccc4)c(Cl)c23)cc1 [IIy, 4-chloro-3-(4-fluorophenyl)-1-[2-[(3R)-3-fluoropyrrolidin-1-yl]ethyl]-5 phenyl-pyrazolo[3,4-c]pyridazine] | ≤ 4 µM | –
13 | F[C@H]1CCN(CCn2nc(-c3ccccc3)c3c(Cl)c(-c4ccccc4)nnc32)C1 [IIt, 4-chloro-1-[2-[(3S)-3-fluoropyrrolidin-1-yl]ethyl]-3,5-diphenyl-pyrazolo[3,4-c]pyridazine] | ≤ 4 µM | –
14 | Cn1nc(N2CCCC2)c2c(Cl)c(-c3ccccc3)nnc21 [XIIIc, 4-chloro-1-methyl-5-phenyl-3-pyrrolidin-1-yl-pyrazolo[3,4-c]pyridazine] | 8 to 12 µM | –
15 | Cn1nc(-c2ccccc2)c2c(Cl)c(C3=CCCC3)nnc21 [IIIb, 4-chloro-5-(cyclopenten-1-yl)-1-methyl-3-phenyl-pyrazolo[3,4-c]pyridazine] | 4 to 8 µM | –
16 | Cc1nn(CCN2CCCC2)c2nnc(-c3ccccc3)c(Cl)c12 [XIIId, 4-chloro-3-methyl-5-phenyl-1-(2-pyrrolidin-1-ylethyl)pyrazolo[3,4-c]pyridazine] | 4 to 8 µM | –
17 | CN1CCN(CCn2nc(N3CCCC3)c3c(Cl)c(-c4ccccc4)nnc32)CC1 [Iz, 4-chloro-1-[2-(4-methylpiperazin-1-yl)ethyl]-5-phenyl-3-pyrrolidin-1-yl-pyrazolo[3,4-c]pyridazine] | ≤ 4 µM | –
18 | CS(=O)(=O)CCn1nc(C2CC2)c2c(Cl)c(-c3ccccc3)nnc21 [Ix, 4-chloro-3-cyclopropyl-1-(2-methylsulfonylethyl)-5-phenyl-pyrazolo[3,4-c]pyridazine] | 8 to 12 µM | –
19 | Cc1nn([C@@H]2C[C@H]3CC[C@@H](C2)N3)c2nnc(-c3ccccc3)c(Cl)c12 [XIIIa] | 4 to 8 µM | –
20 | F[C@@H]1CCN(CCn2nc(C3=CCOCC3)c3c(Cl)c(-c4ccccc4)nnc32)C1 [Iq, 4-chloro-3-(3,6-dihydro-2H-pyran-4-yl)-1-[2-[(3R)-3-fluoropyrrolidin-1-yl]ethyl]-5-phenyl-pyrazolo[3,4-c]pyridazine] | 4 to 8 µM | –
21 | Cn1cncc1Cn1nc(-c2cccn2C)c2c(Cl)c(-c3ccccc3)nnc21 [XIIIb, 4-chloro-1-[(3-methylimidazol-4-yl)methyl]-3-(1-methylpyrrol-2-yl)-5-phenyl-pyrazolo[3,4-c]pyridazine] | 4 to 8 µM | –
22 | Cn1nc(-c2ccccc2)c2c(Cl)c(I)nnc21 [IIIa, 4-chloro-5-iodo-1-methyl-3-phenyl-pyrazolo[3,4-c]pyridazine] | 4 to 8 µM | –
23 | Cc1ccc(-c2nn(CCN3CCN(C)CC3)c3nnc(-c4ccccc4)c(Cl)c23)o1 [Io, 4-chloro-3-(5-methyl-2-furyl)-1-[2-(4-methylpiperazin-1-yl)ethyl]-5-phenyl-pyrazolo[3,4-c]pyridazine] | ≤ 4 µM | –
24 | Cc1ccc(-c2nn(CCN3CCN(C)CC3)c3nnc(-c4ccccc4)c(Cl)c23)s1 [Icc, 4-chloro-1-[2-(4-methylpiperazin-1-yl)ethyl]-3-(5-methyl-2-thienyl)-5-phenyl-pyrazolo[3,4-c]pyridazine] | ≤ 4 µM | –
25 | CN1CCN(CCn2nc(-c3ccccn3)c3c(Cl)c(-c4ccccc4)nnc32)CC1 [Iy, 4-chloro-1-[2-(4-methylpiperazin-1-yl)ethyl]-5-phenyl-3-(2-pyridyl)pyrazolo[3,4-c]pyridazine] | ≤ 4 µM | –
